In one experiment the test system is NCI-1703. The experiment is described as follows: cell viability of NCI-1703 cells, 1 and 10 uM of each erlotinib derivative, and IC50. The note with it: Homo sapiens. Type of experiment: cell-based. On the procedure: [Worded in the source for another cell line; this cell line is reported under the same test.] (§1) Sorafenib (Nexavar), erlotinib (Tarceva) and Paclitaxel were kindly provided by Bayer Pharmaceuticals (Pittsburgh, Pa., USA) and Roche Pharmaceuticals (Basel, Switzerland) respectively. Okadaic acid (OA) was purchased from Cayman Chemical (Ann Arbor, Mich., USA) and z-VAD-fmk was obtained from Sigma (St. Louis, Mo., USA). For in vitro studies, drugs at various concentrations were dissolved in dimethyl sulfoxide (DMSO), and added to cells in Dulbecco's modified Eagle's medium (DMEM) or Roswell Park Memorial Institute (RPMI) containing 5% fetal bovine serum (FBS).
(§2) The Sk-Hep1, PLC/PRF/5 (PLC) and Hep3B cell lines were obtained from American Type Culture Collection (ATCC; Manassas, Va., USA). The Huh-7 HCC cell line was obtained from the Health Science Research Resources Bank (HSRRB; Osaka, Japan; JCRB0403). Cells were maintained in DMEM supplemented with 10% FBS in a 37° C. humidified incubator in an atmosphere of 5% CO^2 in air.

For the next experiment, the system named is NCI-H226. The experiment is described as follows: cell viability of NCI-H226 cells, 1 and 10 uM. Type of experiment: cell-based. The note with it: Homo sapiens. On the procedure:
[Worded in the source for another cell line; this cell line is reported under the same test.] as §1, §2

Another experiment has as its system A549. In words: cell viability of A549 cells, 1 and 10 uM. The format is cell-based. The note with it: Homo sapiens. On the procedure: [Worded in the source for another cell line; this cell line is reported under the same test.] as §1, §2
For the next experiment, the system named is H358. The experiment is described as follows: cell viability of H358 cells, 1 and 10 uM. Type of experiment: cell-based. The note with it: Homo sapiens, NCI-H358. As to the method: [Worded in the source for another cell line; this cell line is reported under the same test.] as §1, §2
For the next experiment, the system named is H2170. The experiment is described as follows: cell viability of H2170 cells, 1 and 10 uM. Type of experiment: cell-based. The note with it: Homo sapiens, NCI-H2170. As to the method:
[Worded in the source for another cell line; this cell line is reported under the same test.] as §1, §2

The next experiment relates to H520. The experiment is described as follows: cell viability of H520 cells, 1 and 10 uM. The format is cell-based. The note with it: Homo sapiens, NCI-H520. On the procedure:
[Worded in the source for another cell line; this cell line is reported under the same test.] as §1, §2

In another experiment the test system is SW900. The experiment is described as follows: cell viability of SW900 cells, 1 and 10 uM. Type of experiment: cell-based. The note with it: Homo sapiens. As to the method:
[Worded in the source for another cell line; this cell line is reported under the same test.] as §1, §2

The target in a further experiment is T1, SET-PP2Ac binding (Homo sapiens, UniProt Q01105).
T1 construct: His; purchased Genway (SET-His); Abnova (PP2Ac-GST) GWB-ATG319; H00005515
T1 sequence (Q01105 1-277 isoform Q01105-2): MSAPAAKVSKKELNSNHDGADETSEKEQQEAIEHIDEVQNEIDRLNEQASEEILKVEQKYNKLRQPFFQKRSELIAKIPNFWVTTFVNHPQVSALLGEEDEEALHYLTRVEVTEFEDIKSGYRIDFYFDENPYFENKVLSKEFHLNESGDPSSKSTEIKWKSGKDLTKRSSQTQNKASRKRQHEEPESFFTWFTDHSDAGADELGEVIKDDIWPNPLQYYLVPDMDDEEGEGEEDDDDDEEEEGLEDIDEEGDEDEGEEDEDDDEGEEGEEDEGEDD
The experiment is described as follows: disruption of SET-PP2Ac binding (surface plasmon resonance, co-IP). As to the method:
Binding affinities of full-length SET and truncated SET to PP2Ac and the effect of the erlotinib derivatives of the present invention on disrupting SET and PP2Ac were analyzed. PP2Ac-GST recombinant protein was bound in the CMS chip pre-coated with GST-capture antibodies. Sensorgrams were generated by injecting several concentrations of the erlotinib derivatives of the present invention mixed with fixed-concentration of SET recombinant protein, or the mixture of different concentration of truncated SET proteins in a fixed-dose EMQA. PP2Ac-GST recombinant protein used for this experiment was purchased from Abnova (H00005515) and SET-His recombinant protein was obtained from Genway (GWB-ATG319).
EMQA reactivates PP2A by disrupting the binding of SET-PP2Ac. To validate the role of SET, the present invention generated Hep3B cells with ectopic expression of myc-tagged SET by transient transfection. […] With a fixed amount of PP2Ac coated on the CM chip, the present invention tested the effects of a fixed-dose of EMQA on interfering different proportions of full-length and truncated forms of SET proteins in SPR system. […] To validate the findings of this ex vivo system, the present invention generated cells with ectopic overexpression of these two truncated forms of Flag-tagged SET proteins by transient transfections.

The subject of the next experiment is PP2A. The experiment is described as follows: PP2A phosphatase activity (malachite green-phosphate assay in cell lysate). Type of experiment: cell-based. On the procedure: The protein phosphatase activity in each cell lysate was determined by measuring the generation of free phosphate from threonine phosphopeptide using the malachite green-phosphate complex assay as described by the manufacturer (Upstate Biotechnology, Lake Placid, N.Y., USA). In brief, HCC cell lysates were first prepared in a low-detergent lysis buffer. […] After incubation for 10 min at 30° C., the malachite dye was added and free phosphate was measured by optical density at 650 nm. In order to avoid variation resulting from differences in the amount of immunoprecipitation protein between samples, the phosphatase activities were normalized to the amounts of PP2A immunoprecipitated, which were detected and quantified by immunoblot analysis for each treatment group.

A value given as a limit tells only on which side of the number the result lay.

As usually defined, the viability is a read-out of living cells in per cent, often relative to untreated cells. `FC(F)(F)Oc1ccc(Nc2nc3ccccc3nc2Nc2ccc(OC(F)(F)F)cc2)cc1` [TD65, N^2,N^3-bis(4-(trifluoromethoxy)phenyl)quinoxaline-2,3-diamine]: the viability at 1 µM turned out to be 53.2 ± 2.3% in the experiment on NCI-1703; 46.2 ± 2.5% in the experiment with NCI-H226; 66.4 ± 6.9% in the experiment with A549; 27.1 ± 1.2% in the experiment with H358; 77.9 ± 3.48% in the experiment on H2170; 18.5 ± 1.23% in the experiment with H520. In addition, the viability at 1 µM with SW900 came out at 0.73 ± 1.32%. Also, the viability at 10 µM is 26.3 ± 1% in the experiment on NCI-1703; 14.1 ± 1.3% with NCI-H226; 27.7 ± 2% in the experiment on A549; 18.3 ± 3% in the experiment on H358; 0.26 ± 0.1% with H2170; 0.47 ± 0.06% in the experiment on H520. Besides, the “minimal concentration to disrupt SET-PP2Ac binding” value at SET-PP2Ac binding is recorded as below 100 nM. The “minimal concentration for PP2A activation” value with PP2A was in the range of 50 to 100 nM.
With `FS(F)(F)(F)(F)c1ccc(Nc2nc3ccccc3nc2Nc2ccc(S(F)(F)(F)(F)F)cc2)cc1` [TD68, N^2,N^3-bis(4-(Pentafluorothio)phenyl)quinoxaline-2,3-diamine], the viability at 1 µM in the experiment on NCI-1703 was 48.6 ± 2%; in the experiment on NCI-H226, 40.2 ± 0.3%; in the experiment with A549, 57.3 ± 19.1%; with H358, 22.4 ± 1.8%; in the experiment on H2170 it was 69.39 ± 0.67%; with H520, 10.1 ± 0.85%. For the same molecule, the viability at 1 µM in the experiment on SW900 is 3.38 ± 4.64%. For the same molecule, the viability at 10 µM in the experiment with NCI-1703 is 33.3 ± 7.1%; in the experiment with NCI-H226, 14.8 ± 0.3%; in the experiment with A549 it was 32.9 ± 4%; with H358, 16.7 ± 0.8%; in the experiment on H2170, 0.17 ± 0.16%; with H520, 0.47 ± 0.11%. In addition, the viability at 10 µM in the experiment on SW900 worked out at 0.57 ± 0.22%. Also, on SET-PP2Ac binding, the “minimal concentration to disrupt SET-PP2Ac binding” value came to 50 nM. The “minimal concentration for PP2A activation” value with PP2A is given as below 50 nM.
Regarding `Clc1cc(Cl)cc(Nc2nc3ccccc3nc2Cl)c1` [TD78, 3-chloro-N-(3,5-dichlorophenyl)quinoxalin-2-amine], the viability at 1 µM was determined as 70.6 ± 8.2% with NCI-1703; 118 ± 2.2% in the experiment with NCI-H226; 77.6 ± 5.8% in the experiment on A549; 98.7 ± 4.6% with H358; 111 ± 1.69% in the experiment with H2170; 108.5 ± 0.14% with H520. In addition, in the experiment with SW900, the viability at 1 µM is 102 ± 6.69%. Moreover, the viability at 10 µM in the experiment on NCI-1703 came out at 73.2 ± 14.1%; with NCI-H226, 111 ± 12.9%; with A549, 94.7 ± 11.3%; with H358, 90.8 ± 7.4%; in the experiment on H2170 it was 93.09 ± 0.66%; in the experiment on H520, 108 ± 2.23%. Moreover, the viability at 10 µM in the experiment on SW900 worked out at 84.1 ± 1.12%. Besides, the “minimal concentration to disrupt SET-PP2Ac binding” value on SET-PP2Ac binding is 100 to 200 nM. For the same molecule, the “minimal concentration for PP2A activation” value in the experiment with PP2A was above 200 nM.
For the molecule `FC(F)(F)Oc1ccc(Nc2nc3ccccc3nc2Cl)cc1` [TD80, 3-chloro-N-(4-(trifluoromethoxy)phenyl)quinoxalin-2-amine], the viability at 1 µM in the experiment with NCI-1703 is 106 ± 5.2%; in the experiment on NCI-H226 it was 103 ± 10.7%; with A549, 110 ± 6%; with H358 it was 119 ± 3.7%; with H2170, 91.6 ± 5.42%; in the experiment on H520 it was 104 ± 1.3%. In the experiment on SW900, the viability at 1 µM worked out at 99.8 ± 11.8%. The viability at 10 µM stood at 52.3 ± 2.4% with NCI-1703; 87.8 ± 9.3% with NCI-H226; 83.4 ± 16.4% in the experiment on A549; 89.4 ± 11.9% in the experiment on H358; 87.56 ± 0.78% in the experiment on H2170; 92.2 ± 4.42% in the experiment on H520. In addition, the viability at 10 µM in the experiment with SW900 was determined as 88 ± 13.4%. Also, the “minimal concentration to disrupt SET-PP2Ac binding” value at SET-PP2Ac binding is recorded as above 200 nM. Also, in the experiment with PP2A, the “minimal concentration for PP2A activation” value is on record as above 200 nM.

Source of the values: patent US10189795B2, “Aryl amine substituted quinoxaline used as anticancer drugs” (priority 2014, dated 2019).
